Results: patent US20120027905A1, “POLYENE ANTIFUNGAL COMPOSITIONS” (DSM IP ASSETS B.V., priority 2009, published 2012)

How the values were obtained:
[1] = test system: Penicillium italicum (ATCC 36041); experiment: Antifungal efficacy of natamycin/thickener compositions on wounded oranges (dip treatment); type: in vivo; settings: after 23 days of storage at room temperature; 0.2% (w/v) thickening agent, 1000 μg/ml natamycin; dipped one minute, P. italicum
Method: In a further experiment the antifungal activity of antimicrobial compositions comprising 1000 μg/ml natamycin and 0.2% (w/v) of the thickening agents described above was examined on oranges. The oranges were obtained from a local retailer in The Netherlands. The oranges were treated with spores of the mould Penicillium italicum (ATCC 36041). The mould spores were obtained using well-known methods. The oranges were injured according to the method described by Lapere de Bellaire and Dubois (see Plant disease 81:1378-1383, ([…])). Oranges were wounded three times using a cork borer followed by contamination per wound with 5 μl of a P. italicum spore suspension containing 10^6 spores/ml. After incubation for 1 hour at room temperature, the oranges were dipped for one minute into the freshly prepared antimicrobial compositions, dripped off and dried to the air. The experiment was executed in ninefold. The oranges were stored for 23 days under the conditions as described above and were judged visually on mould development.

most fungi = settings: for most fungi; cited from earlier work
[2] = cited from earlier work
[3] = test system: Botrytis cinerea (ATCC 12481); experiment: Antifungal efficacy of natamycin/thickener compositions on strawberries; type: in vivo; settings: after 6 days of storage at room temperature; 0.6% (w/v) thickening agent, 1000 μg/ml natamycin; B. cinerea
Method: In this experiment the antifungal activity of antimicrobial compositions comprising natamycin and the above-mentioned thickening agents was examined on strawberries. Compositions containing thickening agents and the antifungal agent natamycin were prepared as described in Example 1. The compositions comprised a final concentration of 0.6% (w/v) thickening agent and 1000 μg/ml natamycin. Fresh untreated strawberries from a local retailer in The Netherlands were artificially contaminated with 5 μl of a freshly prepared concentrated suspension of spores (10^6 spores/ml) of the mould species Botrytis cinerea (ATCC 12481). The mould spores were prepared using well-known methods. One hour after contamination the strawberries were dipped for one minute into the freshly prepared antimicrobial compositions, dripped off and dried to the air. The experiment was executed in ninefold. The strawberries were stored for 6 days under the conditions as described in Example 1 and were judged visually on mould development.

[4] = test system: Aspergillus ochraceus (ATCC 60532); experiment: Antifungal efficacy of natamycin/thickener compositions on fresh coffee beans; type: in vivo; settings: after 4 days of storage at room temperature; 0.6% (w/v) thickening agent, 1000 μg/ml natamycin; A. ochraceus
Method: In this experiment the antifungal activity of the antimicrobial compositions comprising natamycin and the above-mentioned thickening agents was examined on fresh coffee beans. Compositions containing thickening agents and the antifungal agent natamycin were prepared as described in Example 1. The compositions comprised a final concentration of 0.6% (w/v) thickening agent and 1000 μg/ml natamycin. Fresh untreated coffee beans from a local retailer in The Netherlands were artificially contaminated with 5 μl of a freshly prepared concentrated suspension of spores (10^6 spores/mil) of the mould Aspergillus ochraceus (ATCC 60532). The mould spores were prepared using well-known methods. One hour after contamination the coffee beans were dipped for one minute into the freshly prepared antimicrobial compositions, dripped off and dried to the air. The experiment was executed in ninefold. The coffee beans were stored for 4 days under the conditions as described in Example 1 and were judged visually on mould development.

C[C@@H]1C/C=C/C=C/C=C/C=C/[C@H](O[C@@H]2O[C@H](C)[C@@H](O)[C@H](N)[C@@H]2O)C[C@@H]2O[C@](O)(C[C@@H](O)C[C@H]3O[C@@H]3/C=C/C(=O)O1)C[C@H](O)[C@H]2C(=O)O [Natamycin, natamycin]
Moulded orange wounds (total amount of wounds is 9) [1]: 9 | MIC (Minimal Inhibitory Concentration) (most fungi): less than 10 mg/l | solubility in water [2]: 30 to 50 µg/mL | Moulded strawberries of the total of 9 [3]: 6 | Moulded coffee beans of the total of 9 [4]: 9
